According to patent publication US4113774A, “N-(Dichloroacetyl) diamine compounds and process of preparing same” (Sterling Drug Inc., priority 1977, dated 1978):

Legend:
[1] = biological target: liver acetaldehyde dehydrogenase; assay: Inhibition of liver acetaldehyde dehydrogenase (I50); type: biochemical; conditions: bovine liver enzyme, propionaldehyde substrate, NAD, pH 9.6, 26.0 °C, 15 minutes; read-out: I50 values (molar concentration for 50% inhibition) for inhibition of liver acetaldehyde dehydrogenase
Description: The specific activity of the partially purified enzyme preparation was 172 units per milligram of protein. The assay system contained 30μ moles of sodium pyrophosphate buffer with a final pH of 9.6, 135μ moles of propylene glycol to serve as a vehicle for the compound being tested, 0.5μ mole of propionaldehyde, 1μ mole of nicotinamide adenine dinucleotide and 120 units of enzyme to initiate the reaction in a total volume of 3.0 milliliters. The assay mixture was contained in 1 centimeter silica cuvettes. The reaction was followed by measuring the increase in optical density at 340 mμ with time on the Beckman du spectrophotometer which was equipped with dual thermospacers set to maintain the temperature of the cell compartment at 26.0 ± 0.1° C. by means of a circulating water bath (Haake Thermostat F, Berlin). Readings of optical density were taken each minute for 15 minutes. The optical density at 15 minutes corrected for optical density at zero time was used to calculate percent inhibition compared with controls which contained all constituents except the compound being tested. Fifty percent inhibition values (I50) were determined from first order reaction plots at multiple levels of the tested compound. Sodium pyrophosphate changes pH when diluted with the other reaction constitutents in water; so, this effect was compensated for to bring the final pH of the incubation mixture to 9.6.

aldehyde dehydrogenase = conditions: cited from earlier work; for effectiveness compared with disulfiram: evaluation said to considerably underestimate effectiveness
[2] = man and animals; cited from earlier work
[3] = tested on: antispermatogenic activity; conditions: Coulston et al.; Surrey U.S. Pat. No. 3,143,566; cited from earlier work
[4] = tested on: antispermatogenic activity; conditions: cited from earlier work
spermatogenesis = conditions: cited from earlier work
E. criceti = conditions: cited from earlier work

Row | SMILES | IC50 [1] | effectiveness compared with disulfiram (aldehyde dehydrogenase) | side effect [2] | further results
1 | O=C(NCCCCCCCCNC(=O)C(Cl)Cl)c1ccc(Cl)cc1 [Example B-1, N-(dichloroacetyl)-N'-(4-chlorobenzoyl)-1,8-octanediamine] | 2700 nM | – | – | –
2 | O=C(NCCCCCCCCNC(=O)C(Cl)Cl)c1ccc(Cl)c(Cl)c1 [Example B-2, N-(Dichloroacetyl)-N'-(3,4-dichlorobenzoyl)-1,8-octanediamine] | 820 nM | – | – | –
3 | CCN(Cc1ccc(CN(CC)C(=O)C(Cl)Cl)cc1)C(=O)C(Cl)Cl [Win 13,099, N,N'-bis(dichloroacetyl)-N,N'-diethyl-1,4-bis(aminomethyl)benzene] | – | about as effective as disulfiram | a reaction to ethanol in man and animals | –
4 | O=C(NCCCCCCCCNC(=O)C(Cl)Cl)C(Cl)Cl [Win 18,466, N,N'-Bis(dichloroacetyl)-1,8-octanediamine] | – | about as effective as disulfiram | a reaction to ethanol in man and animals | antispermatogenic activity [3]: highly antispermatogenically-active; antispermatogenic activity in rats [4]: to have antispermatogenic activity in rats; suppression of spermatogenesis in man (spermatogenesis): to suppress spermatogenesis in man; in vivo amebicidal activity against E. criceti in hamsters (E. criceti): not to have in vivo amebicidal activity; inhibitor of aldehyde dehydrogenase (aldehyde dehydrogenase): to be an inhibitor of aldehyde dehydrogenase
5 | CCN(CC)C(=S)SSC(=S)N(CC)CC [disulfiram, bis(diethylthiocarbamoyl) disulfide] | 13000 nM | – | – | –
